Measurements from the NIST ThermoML archive (doi:10.1021/acs.jced.6b00350).
Several values for one entry are separate records, joined by “and”; a condition that tells them apart may be missing. Identical values can stand only once.

Settings: Liquid, Hot wire method

FC(F)CC(F)(F)F [1,1,1,3,3-pentafluoropropane]
Settings | thermal conductivity
223.4 K, 21286 kPa | 0.1177 W/m/K
223.4 K, 27486 kPa | 0.1196 W/m/K
223.4 K, 27487 kPa | 0.1195 W/m/K
223.41 K, 15762 kPa | 0.1159 W/m/K
223.41 K, 15769 kPa | 0.1159 W/m/K
223.41 K, 21280 kPa | 0.1178 W/m/K
223.42 K, 4862 kPa | 0.1127 W/m/K
223.42 K, 4869 kPa | 0.1127 W/m/K
223.42 K, 10011 kPa | 0.1143 W/m/K
223.42 K, 10015 kPa | 0.1145 W/m/K
223.43 K, 243 kPa | 0.1111 W/m/K
223.43 K, 251 kPa | 0.1111 W/m/K
223.65 K, 67907 kPa | 0.1291 W/m/K
223.65 K, 67916 kPa | 0.1294 W/m/K
223.66 K, 61399 kPa | 0.1279 W/m/K
223.67 K, 61396 kPa | 0.1278 W/m/K
223.68 K, 54302 kPa | 0.1262 W/m/K
223.68 K, 54305 kPa | 0.1261 W/m/K
223.69 K, 47183 kPa | 0.1247 W/m/K
223.69 K, 47193 kPa | 0.1247 W/m/K
223.7 K, 39777 kPa | 0.123 W/m/K
223.71 K, 39772 kPa | 0.1229 W/m/K
223.87 K, 33885 kPa | 0.1209 W/m/K
223.88 K, 33873 kPa | 0.1209 W/m/K
241.3 K, 9886 kPa | 0.1092 W/m/K
241.3 K, 15301 kPa | 0.1111 W/m/K
241.31 K, 9877 kPa | 0.1094 W/m/K
241.32 K, 21013 kPa | 0.1123 W/m/K
241.32 K, 21021 kPa | 0.1121 W/m/K
241.33 K, 33388 kPa | 0.115 W/m/K
241.34 K, 33390 kPa | 0.1153 W/m/K
241.35 K, 26974 kPa | 0.1134 W/m/K
241.35 K, 26975 kPa | 0.1134 W/m/K
241.35 K, 46711 kPa | 0.1187 W/m/K
241.35 K, 46714 kPa | 0.1192 W/m/K
241.36 K, 39784 kPa | 0.1173 W/m/K
241.37 K, 297 kPa | 0.1065 W/m/K and 0.1069 W/m/K
241.37 K, 4974 kPa | 0.1077 W/m/K
241.37 K, 39780 kPa | 0.1174 W/m/K
241.38 K, 4982 kPa | 0.1074 W/m/K
241.38 K, 53704 kPa | 0.1209 W/m/K
241.38 K, 53707 kPa | 0.1206 W/m/K
241.41 K, 61279 kPa | 0.1222 W/m/K
241.43 K, 68711 kPa | 0.1241 W/m/K
241.43 K, 68724 kPa | 0.1238 W/m/K
241.68 K, 15290 kPa | 0.1103 W/m/K
241.69 K, 9889 kPa | 0.1088 W/m/K
241.69 K, 9892 kPa | 0.1093 W/m/K
241.69 K, 15293 kPa | 0.1107 W/m/K
241.69 K, 21027 kPa | 0.1119 W/m/K
241.69 K, 21032 kPa | 0.1126 W/m/K
241.7 K, 33378 kPa | 0.1158 W/m/K
241.7 K, 33381 kPa | 0.1154 W/m/K
241.7 K, 46707 kPa | 0.1184 W/m/K
241.71 K, 26968 kPa | 0.1137 W/m/K
241.71 K, 26981 kPa | 0.1139 W/m/K
241.71 K, 46714 kPa | 0.1189 W/m/K
241.72 K, 39777 kPa | 0.117 W/m/K
241.73 K, 39791 kPa | 0.1169 W/m/K
241.73 K, 53687 kPa | 0.1208 W/m/K
241.73 K, 53704 kPa | 0.1206 W/m/K
241.75 K, 61249 kPa | 0.1223 W/m/K
241.75 K, 61272 kPa | 0.1223 W/m/K
241.76 K, 296 kPa | 0.1058 W/m/K
241.76 K, 303 kPa | 0.1061 W/m/K
241.76 K, 4987 kPa | 0.108 W/m/K
241.77 K, 4997 kPa | 0.1079 W/m/K
241.77 K, 68669 kPa | 0.1236 W/m/K
241.78 K, 68692 kPa | 0.1241 W/m/K
